Measurements taken from patent US20260200928A1, “THERAPEUTIC COMPOUNDS” (Sanofi, priority 2022, published 2026).

Molecular target: T1, human IL-17A (Homo sapiens, UniProt Q16552)
T1 construct: purchased R&D Systems 7955-IL/CF
T1 sequence (Q16552 24-155): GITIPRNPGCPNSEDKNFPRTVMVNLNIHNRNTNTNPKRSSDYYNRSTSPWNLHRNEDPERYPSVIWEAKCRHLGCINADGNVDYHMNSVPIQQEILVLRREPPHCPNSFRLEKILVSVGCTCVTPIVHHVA
Assay: IL-17A AlphaLISA competition assay (block of IL-17A binding to its receptor IL-17RA)
Settings: mean IC50 (n≥2), block of IL-17A binding to IL-17RA
Procedure, shortened: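 Human recombinant IL-17A (7.5 nM stock) pre-incubated 30 min at RT with compound, then IL-17RA/Fc (5 nM stock) added for 90 min; AlphaLISA read with anti-Fc acceptor beads, biotinylated anti-IL-17A antibody (5 nM) and streptavidin donor beads (3 h, dark). IC50 from 4-parameter logistic fit, normalised to DMSO and 4 μM reference inhibitor; n≥2.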

| IC50 [nM] | SMILES |
| --- | --- |
| 689 | CCc1nocc1C(=O)N[C@H](C(=O)Nc1cc(O[C@H]2C[C@@H](C(F)(F)F)NC2=O)ccn1)[C@H]1CC[C@H](C)CC1 [Example 321, 3-ethyl-N—((S)-1-((1r,4S)-4-methylcyclohexyl)-2-oxo-2-((4-(((3S,5S)-2-oxo-5-(trifluoromethyl)pyrrolidin-3-yl)oxy)pyridin-2-yl)amino)ethyl)isoxazole-4-carboxamide] |
| 14 | CC1CCC(C(NC(=O)c2nonc2C2CC2)C(=O)Nc2cc(C(C)N3CC(C(F)(F)F)NC3=O)ccn2)CC1 [Example 238, 4-cyclopropyl-N-((S)-1-((1r,4S)-4-methylcyclohexyl)-2-oxo-2-((4-((R)-1-((S)-2-oxo-4-(trifluoromethyl)imidazolidin-1-yl)ethyl)pyridin-2-yl)amino)ethyl)-1,2,5-oxadiazole-3-carboxamide] |
| 189 | CCc1conc1C(=O)N[C@H](C(=O)Nc1cc([C@@H](COC)N2C[C@@H](C(F)(F)F)NC2=O)ccn1)C1CC(F)(F)C1 [Example 261, N—((S)-1-(3,3-difluorocyclobutyl)-2-((4-((S)-2-methoxy-1-((S)-2-oxo-4-(trifluoromethyl)imidazolidin-1-yl)ethyl)pyridin-2-yl)amino)-2-oxoethyl)-4-ethylisoxazole-3-carboxamide] |
| 84 | COC[C@H](c1ccnc(NC(=O)C(NC(=O)c2ccnn2C)C2CCC(F)CC2)c1)N1C[C@@H](C(F)(F)F)NC1=O (single isomer, unassigned) [Example 288] |
| 26 | CCc1conc1C(=O)N[C@H](C(=O)Nc1cc([C@@H](COC)N2C[C@@H](C(F)(F)F)NC2=O)ccn1)C1CCCC(F)(F)C1 (single isomer, unassigned) [Example 304] |
| 15 | CCc1nonc1C(=O)N[C@@H](COC(C)(C)C(F)(F)F)C(=O)Nc1cc([C@@H](COC)N2C[C@@H](C(F)(F)F)NC2=O)ccn1 [Example 266, 4-ethyl-N-((S)-1-((4-((S)-2-methoxy-1-((S)-2-oxo-4-(trifluoromethyl)imidazolidin-1-yl)ethyl)pyridin-2-yl)amino)-1-oxo-3-((1,1,1-trifluoro-2-methylpropan-2-yl)oxy)propan-2-yl)-1,2,5-oxadiazole-3-carboxamide] |
| 50 | Cn1nccc1C(=O)N[C@H](C(=O)Nc1cc(C(C2CC2)N2C[C@@H](C(F)(F)F)NC2=O)ccn1)C1CCC(F)(F)CC1 (single isomer, unassigned) [Example 166, N-((1S)-2-((4-((R or S)-cyclopropyl((S)-2-oxo-4-(trifluoromethyl)imidazolidin-1-yl)methyl)pyridin-2-yl)amino)-1-(4,4-difluorocyclohexyl)-2-oxoethyl)-1-methyl-1H-pyrazole-5-carboxamide] |
| 56 | COC[C@H](c1ccnc(NC(=O)[C@@H](NC(=O)c2conc2C(C)C)C2CCC(F)(F)CC2)c1)N1C[C@@H](C(F)(F)F)NC1=O [Example 197, N-((S)-1-(4,4-difluorocyclohexyl)-2-((4-((S)-2-methoxy-1-((S)-2-oxo-4-(trifluoromethyl)imidazolidin-1-yl)ethyl)pyridin-2-yl)amino)-2-oxoethyl)-3-isopropylisoxazole-4-carboxamide] |
| 27 | CCc1nocc1C(=O)N[C@@H](COC(C)(C)C(F)(F)F)C(=O)Nc1cc([C@@H](COC)N2C[C@@H](C(F)(F)F)NC2=O)ccn1 [Example 267, 3-ethyl-N-((S)-1-((4-((S)-2-methoxy-1-((S)-2-oxo-4-(trifluoromethyl)imidazolidin-1-yl)ethyl)pyridin-2-yl)amino)-1-oxo-3-((1,1,1-trifluoro-2-methylpropan-2-yl)oxy)propan-2-yl)isoxazole-4-carboxamide] |
| 48 | COC[C@H](c1ccnc(NC(=O)[C@H](COC(C)(C)C(F)(F)F)NC(=O)c2ccnn2C(C)C)c1)N1C[C@@H](C(F)(F)F)NC1=O [Example 272, 1-isopropyl-N-((S)-1-((4-((S)-2-methoxy-1-((S)-2-oxo-4-(trifluoromethyl)imidazolidin-1-yl)ethyl)pyridin-2-yl)amino)-1-oxo-3-((1,1,1-trifluoro-2-methylpropan-2-yl)oxy)propan-2-yl)-1H-pyrazole-5-carboxamide] |

More lines, now with the values behind:

| SMILES | IC50 [nM] |
| --- | --- |
| C[C@H]1CC[C@H]([C@H](NC(=O)c2ccnn2CCC(O)C(F)(F)F)C(=O)Nc2cc(CN3C[C@@H](C(F)(F)F)NC3=O)ccn2)CC1 (single isomer, unassigned) [Example 69] | 126 |
| Cn1nccc1C(=O)N[C@H](C(=O)Nc1cc(CC(=O)NCCC(F)(F)F)ccn1)C(C1CC1)C1CC1 [Example 31, (S)—N-(1,1-dicyclopropyl-3-oxo-3-((4-(2-oxo-2-((3,3,3-trifluoro-propyl)amino)ethyl)pyridin-2-yl)amino)propan-2-yl)-1-methyl-1H-pyrazole-5-carboxamide] | 5060 |
| CC(C)(C)OC(=O)N[C@H](C(=O)Nc1cc(C(NC(=O)CCC(F)(F)F)C2CC2)ccn1)[C@H]1CC[C@H](C)CC1 (single isomer, unassigned; diastereomer 1) [Example 71] | 197 |
| Cn1nccc1C(=O)NC(COC(C)(C)C)C(=O)Nc1cc(CN2C[C@@H](C(F)(F)F)NC2=O)ccn1 (stereo partly drawn) [Example 83, N-(3-(tert-butoxy)-1-oxo-1-((4-(((S)-2-oxo-4-(trifluoromethyl)imidazolidin-1-yl)methyl)pyridin-2-yl)amino)propan-2-yl)-1-methyl-1H-pyrazole-5-carboxamide] | 7110 |
| O=C(CCC(F)(F)F)NC(c1ccnc(NC(=O)C(NC(=O)c2nonc2C2CC2)C2CCC(F)(F)CC2)c1)C1CC1 (stereo not drawn) [Example 46, 4-cyclopropyl-N-(2-((4-(cyclopropyl(4,4,4-trifluorobutan-amido)methyl)pyridin-2-yl)amino)-1-(4,4-difluorocyclohexyl)-2-oxoethyl)-1,2,5-oxadiazole-3-carboxamide] | 612 |
| CC(C)(C)OC(=O)N[C@H](C(=O)Nc1cc(C(NC(=O)CCC(F)(F)F)C2CC2)ccn1)C1CCC(F)(F)CC1 (single isomer, unassigned; diastereomer 1) [Example 72] | 547 |
| CCn1nccc1C(=O)N[C@H](C(=O)Nc1cc(C[C@@H]2C[C@@H](C(F)(F)F)NC2=O)ccn1)[C@H]1CC[C@H](C)CC1 [Example 153, 1-ethyl-N—((S)-1-((1r,4S)-4-methylcyclohexyl)-2-oxo-2-((4-(((3R,5S)-2-oxo-5-(trifluoromethyl)pyrrolidin-3-yl)methyl)pyridin-2-yl)amino)ethyl)-1H-pyrazole-5-carboxamide] | 171 |
| COCC(c1ccnc(NC(=O)[C@@H](NC(=O)c2nonc2C2CC2)[C@H]2CC[C@H](C)CC2)c1)N1C[C@@H](C(F)(F)F)NC1=O (single isomer, unassigned) [Example 58] | 11 |
| Cn1nccc1C(=O)N[C@H](C(=O)Nc1cc(C(NC(=O)CCC(F)(F)F)C2CC2)ccn1)C(C1CC1)C1CC1 (single isomer, unassigned) [Example 42] | 524 |
| CCn1nccc1C(=O)NC(C(=O)Nc1cc(Cc2cccc(=O)n2C)ccn1)C1CCC(F)(F)CC1 (stereo not drawn) [Example 36, N-(1-(4,4-difluorocyclohexyl)-2-((4-((1-methyl-6-oxo-1,6-dihydro-pyridin-2-yl)methyl)pyridin-2-yl)amino)-2-oxoethyl)-1-ethyl-1H-pyrazole-5-carboxamide] | 12000 |
| COCC(NC(=O)CCC(F)(F)F)c1ccnc(NC(=O)[C@@H](NC(=O)c2ccnn2C2CC2)C2CCC(F)(F)CC2)c1 (single isomer, unassigned) [Example 139] | 265 |
| CC(C)(C)OCC(NC(=O)OCc1ccccc1)C(=O)Nc1cc(CN2C[C@@H](C(F)(F)F)NC2=O)ccn1 (mixture of isomers) [Example 81, Benzyl ((rac)-3-(tert-butoxy)-1-oxo-1-((4-(((S)-2-oxo-4-(trifluoromethyl)imidazolidin-1-yl)methyl)pyridin-2-yl)amino)propan-2-yl)carbamate] | 6140 |
| Cc1cc(COC(=O)N[C@H](C(=O)Nc2cc(CN3C[C@@H](C(F)(F)F)NC3=O)ccn2)C2CCC(F)(F)CC2)no1 [Example 57, (5-Methylisoxazol-3-v)methyl ((S)-1-(4,4-difluorocyclohexyl)-2-oxo-2-((4-(((S)-2-oxo-4-(trifluoromethyl)imidazolidin-1-VI)methyl)pyridin-2-yl)amino)ethyl)carbamate] | 1960 |
| Cn1nccc1C(=O)NC(C(=O)Nc1cc(Cc2ccc(=O)n(C)c2)ccn1)C1CCC(F)(F)CC1 (stereo not drawn) [Example 52, N-(1-(4,4-difluorocyclohexyl)-2-((4-((1-methyl-6-oxo-1,6-dihydro-pyridin-3-yl)methyl)pyridin-2-yl)amino)-2-oxoethyl)-1-methyl-1H-pyrazole-5-carboxamide] | 23900 |
| Cc1nonc1C(=O)N[C@H](C(=O)Nc1cc(C(C2CC2)N2C[C@@H](C(F)(F)F)NC2=O)ccn1)C1CCC(F)(F)CC1 (single isomer, unassigned) [Example 164, N-((1S)-2-((4-((R or S)-cyclopropyl((S)-2-oxo-4-(trifluoromethyl)imidazolidin-1-yl)methyl)pyridin-2-yl)amino)-1-(4,4-difluorocyclohexyl)-2-oxoethyl)-4-methyl-1,2,5-oxadiazole-3-carboxamide] | 35 |
| COCC(c1ccnc(NC(=O)C(NC(=O)C(F)(F)c2ccc(C)cc2)C2CCC(C)CC2)c1)N1CC(C(F)(F)F)NC1=O (single isomer, unassigned) [Example 149] | 108 |
| COCC(c1ccnc(NC(=O)[C@@H](NC(=O)OC(C)(C)C)[C@H]2CC[C@H](C)CC2)c1)N1C[C@@H](C(F)(F)F)NC1=O (single isomer, unassigned) [Example 66, tert-butyl ((S)-2-((4-((R or S)-2-methoxy-1-((S)-2-oxo-4-(trifluoromethyl)imidazolidin-1-yl)ethyl)pyridin-2-yl)amino)-1-((1r,4S)-4-methylcyclohexyl)-2-oxoethyl)carbamate] | 74 |
